Experimental data taken from patent US20230097992A1, “BIVALENT EGF FUSION TOXINS” (The Regents of the University of Colorado, a body corporate, priority 2020, published 2023).

Columns and labels:
[1] = test system: human EGFR-positive HNSCC cell line HN6; assay: CellTiter-Glo Luminescent Cell Viability Assay, HN6; type: cell-based; settings: HN-6, read-out: IC50 to HNSCC cell lines (Erlotinib)
Method: (§1) FIG. 9 presents the data from in vitro efficacy analysis of the human EGF fusion toxins against human EGFR-positive HNSCC cell lines using CellTiter-Glo® Luminescent Cell Viability Assay (Promega) Y-axis: inhibition rate of the cell viability by determining the number of viable cells based on the quantification of the ATP present. X-axis: plated fusion toxin concentration. Cycloheximide (1.25 mg/mL) was used as a positive control. The negative control contained cells without fusion toxin. Data were from three individual experiments for each HNSCC cell line. Error bars indicate SD.
(§2) Y-axis: inhibition rate of the cell viability by determining the number of viable cells based on the quantification of the ATP present. […] Cycloheximide (1.25 mg/mL) was used as a positive control. […]
(§3) In vitro efficacy analysis of the human EGF fusion toxins (mEGF-IT and bEGF-IT) to the human HNSCC tumor cell lines was performed using CellTiter-Glo® Luminescent Cell Viability Assay (Promega Corporation, Madison, Wis.) as described previously (Zheng et al. (2017), Mol. Oncol. 11, 584-594, which is hereby incorporated by reference in its entirety). This cell viability assay measures the luminescence produced because of ATP production from metabolically active cells. […] The luminescence signals were recorded using BioTek Synergy LX Multi-Mode Reader.
(§4) IC50 was determined using nonlinear regression (curve fit) of Prism. […]

[2] = test system: human EGFR-positive HNSCC cell line UMSCC47; assay: CellTiter-Glo Luminescent Cell Viability Assay, UMSCC47; type: cell-based; settings: read-out: IC50 to HNSCC cell lines (Erlotinib)
Method: as §1, §2, §3, §4

[3] = test system: HNSCC Cal27 subcutaneous xenografts; assay: Flank-xenograft solid tumor-bearing NSG mouse model; type: in vivo, NSG mice; settings: for Median survival time: Subcutaneous xenograft model, fusion toxin or DT390 50 μg/kg IP, erlotinib 20 mg/kg gavage, once daily for 10 days from day 4
Description: FIGS. 6A-6D presents the data from in vivo efficacy analysis of the human EGF fusion toxins against subcutaneous xenografts in NSG mice from two animal studies. FIG. 6A depicts the survival curve for NSG mice injected with Cal27 cells. […] FIGS. 6B-D depict tumor volume and weight data from the second study performed with a second cohort of NSG mice. […] Mice were euthanized on day 14 after tumor cell injection, when the first mouse in the DT390 group reached the end point. FIG. 6B: Tumor volumes were measured periodically, and the growth kinetics of the four groups were plotted. FIG. 6B depicts the tumor growth kinetics for a period of 14 days. FIG. 6C presents a bar graph representing the tumor weights at day 14. FIG. 6D depicts images of harvested tumors on day 14. Scale bar: 1 cm. FIGS. 6A-6C: *P<0.05; **P<0.01; ***P<0.001; ****P<0.0001; ns: not significant. The P-values for the survival curves in FIG. 6A were calculated using the Mantel-Cox log-rank test and that for the comparisons in FIGS. 6B and C were calculated using the two-tailed Student t-test (GraphPad Prism 9.0.0).
HNSCC tumor cells were injected via the following routes: 1) Flank-xenograft solid tumor model: eight million human HNSCC Cal27 tumor cells were subcutaneously injected into the right flank at day 0. The tumor-bearing mice were randomly divided into the four experimental groups when the tumors were palpable at day 3. The tumor volume was measured using digital vernier calipers every 3 days and calculated according to the formula: volume (mm^3)=(length×width×width)/2. 2) Tongue-orthotopic solid tumor model: eight million human HNSCC Cal27 tumor cells in 50 μl DMEM were injected into the tongue at day 0 following isoflurane anesthesia and the tumor-bearing mice were randomly divided into the planned four experimental groups at day 3. 3) Experimental metastasis model: one million human HNSCC Cal27 tumor cells in 200 μl DMEM were intravenously injected at day 0 via tail vein and the tumor-bearing mice were randomly divided into the four experimental groups at day 3.
Mono-EGF-IT (mEGF-IT), bEGF-IT, or DT390 was intraperitoneally injected (IP) starting at day 4 at 50 μg/kg, once daily for 10 consecutive days. […] The injected animals were observed daily for signs and symptoms of illness and scored at least twice weekly based on the parameters as previously reported (Peraino et al. (2013), J. Immunol. Methods 398-399, 33-43, which is hereby incorporated by reference in its entirety; Wang et al., 2015). The animals were humanely euthanized when the score exceeded the limit or the animal lost more than 15% of its pre-injection body weight. In addition, to assess whether the fusion toxins are toxic to the animals, NSG mice injected with the fusion toxins only were also included as control.
In vivo efficacy of the mEGF-IT and bEGF-IT against HNSCC was assessed using three immunodeficient tumor-bearing NSG mouse models. The first in vivo efficacy model was a flank-xenograft solid tumor-bearing NSG mouse model. Eight million Cal27 tumor cells were injected subcutaneously (SQ) into the right flank at day 0. The EGF fusion toxins were injected intraperitoneally (IP) starting on day 4 at 50 μg/kg daily for 10 consecutive days. […] The reduction of the tumor volumes, weights and sizes (FIGS. 6B-6D) were all consistent with the median survival prolongation.

[4] = test system: 14 EGFR+ HNSCC cells lines; assay: Flow cytometry binding, all 14 EGFR+ HNSCC cell lines together; design: species or system human; settings: mean over the 14 EGFR+ HNSCC cell lines

Molecule | IC50 [1] [nM] | IC50 [2] [µM] | Median survival time [3] [days] | Kd [4] [nM] | Median survival time ([3]; listed as bEGF-IT) [days] | decrease of tumor sizes and weights ([3]; flank xenograft, second cohort, day 14)
C#Cc1cccc(Nc2ncnc3cc(OCCOC)c(OCCOC)cc23)c1 [Erlotinib] | 940 | 4.12 | >60 |  |  | 
Bi-EGF IT: DT390 joined by G4S to two human EGF domains linked by (G4S)3, C-terminal 6×His tag; SEQ ID NO: 10 |  |  | >60 | 5.05 | 61 | about 80%
